Experimental data: patent US20080039629A1, “Benzothniazole compositions and their use as ubiquition ligation inhibitors” (RIGEL PHARMACEUTICALS, INC., priority 2003, published 2008)

The compounds below were run against T1, E1 and His-E2 Ubch10 (Homo sapiens, UniProt P22314) (assay: E1 to E2 transfer assay, His-E2 Ubch10, 1.0 μM ATP (low ATP)). Conditions: Table 5, ATP inhibition properties; inhibition measured using IC50 values.
T1 construct: host or cells: E. coli (His-Ubch10); Sf9 insect cells (E1)
T1 sequence (P22314 1-1058): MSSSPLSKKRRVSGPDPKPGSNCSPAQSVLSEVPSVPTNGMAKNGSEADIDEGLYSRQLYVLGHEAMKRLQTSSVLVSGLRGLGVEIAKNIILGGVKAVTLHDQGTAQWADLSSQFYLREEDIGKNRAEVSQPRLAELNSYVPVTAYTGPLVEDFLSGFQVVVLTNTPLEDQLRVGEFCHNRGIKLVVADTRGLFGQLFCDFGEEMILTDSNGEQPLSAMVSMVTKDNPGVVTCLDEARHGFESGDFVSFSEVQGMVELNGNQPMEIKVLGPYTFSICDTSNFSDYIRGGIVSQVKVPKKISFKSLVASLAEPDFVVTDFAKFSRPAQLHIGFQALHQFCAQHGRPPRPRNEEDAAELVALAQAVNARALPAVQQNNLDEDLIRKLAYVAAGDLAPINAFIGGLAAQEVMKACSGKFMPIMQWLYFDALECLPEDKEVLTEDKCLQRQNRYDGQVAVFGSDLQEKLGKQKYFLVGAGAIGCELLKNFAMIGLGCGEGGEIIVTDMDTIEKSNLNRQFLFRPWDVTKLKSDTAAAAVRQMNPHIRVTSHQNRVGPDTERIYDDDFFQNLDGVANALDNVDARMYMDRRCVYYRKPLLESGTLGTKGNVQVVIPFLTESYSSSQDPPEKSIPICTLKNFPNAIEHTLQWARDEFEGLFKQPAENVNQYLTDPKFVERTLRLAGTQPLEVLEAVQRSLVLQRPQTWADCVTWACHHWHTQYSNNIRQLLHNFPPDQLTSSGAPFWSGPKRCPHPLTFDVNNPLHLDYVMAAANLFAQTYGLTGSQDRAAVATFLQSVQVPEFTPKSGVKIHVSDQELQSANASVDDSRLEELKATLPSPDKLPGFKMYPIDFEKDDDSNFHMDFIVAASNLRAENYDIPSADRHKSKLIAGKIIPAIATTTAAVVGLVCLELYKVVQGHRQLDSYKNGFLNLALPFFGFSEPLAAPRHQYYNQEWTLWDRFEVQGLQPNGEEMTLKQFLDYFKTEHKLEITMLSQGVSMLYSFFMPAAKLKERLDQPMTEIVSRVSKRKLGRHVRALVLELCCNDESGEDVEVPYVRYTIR
Assay type: biochemical
Text: Biological assays for determining the transfer of ubiquitin from the E1 activating agent to the E2 conjugating agent are described in U.S. patent application Ser. Nos. 09/542,497 and 09/826,312 as well as in the PCT Application WO 01/75145, all of which are incorporated by reference in their entirety. The following assay example illustrates one way by which the ubiquitin ligase inhibitory activity of the compounds of the invention can be assayed. This assay example is not meant to limit in any way the use of the compounds of the invention as ubiquitin ligase inhibitors.
The attachment of a ubiquitin moiety to the E2 conjugating agent was assayed using Flag-ubiquitin that was purified from E. coli, E2 Ubch10 that was purified as a His-Ubch10 from E. coli, and E1 that was purified from Sf9 insect cells (Affiniti Research Products, Exeter, U.K.). The wells of a Nickel-substrate 96-well plate (Pierce Chemical) were blocked with 100 μl of 1% casein/phosphate buffered saline (PBS) for 1 hour at room temperature. The blocked Nickel-substrate plate was then washed three times with 200 μl of PBST (0.1% Tween-20 in PBS). Subsequently, Flag-ubiquitin reaction solution was added to each well so that the final concentration was 62.5 mM Tris pH 7.5, […], 0.75 mM DTT, 1.0 μM ATP (low ATP), and 100 ng Flag-ubiquitin. The final reaction solution volume was fixed to 80 μl with Millipore-filtered water. To this was added the following: a ubiquitin agent inhibitor in 10 μl of DMSO, 10 μl of E1 and His-E2 Ubch10 in 20 mM Tris buffer, pH 7.5, and 5% glycerol so that there was 10 ng/well of E1 and 20 ng/well of His-E2 Ubch10. The reaction was then allowed to proceed at room temperature for 1 hour.
After 1 hour, the wells were washed three times with 200 μl of PBST and the amount of E2-ubiquitin complex was measured. For measuring the amount of the E2-ubiquitin complex, 100 μl of Mouse anti-flag diluted 1:10,000 (Sigma Aldrich Fluka Chemicals, St. Louis, Mo.) and anti-mouse HRP diluted 1:15,000 (Jackson Immunoresearch labs, West Grove, Pa.) in PBST were added to each well and allowed to incubate at room temperature for another hour. The wells were then washed three times with 200 μl of PBST and 100 μl of luminol substrate (⅕ dilution) was added. The luminescence of each well was then measured using a […] to calculate the amount of E2-ubiquitin complex. This procedure was repeated using His-E2 Ubch5C instead of His-E2 Ubch10.
The table below illustrates the inhibitory properties of the pharmaceutical compostions of the invention comprising the compounds listed in the table using the assays described above. Inhibition was measured using IC50 values.
With `COc1ccc2nc(NC(=O)c3c(F)cccc3F)sc2n1` [Compound 145, 2,6-difluoro-N-(5-methoxythiazolo[5,4-b]pyridin-2-yl)benzamide] the UBC10 was “−− (−− indicates marginal or no inhibition detected with this assay)”. For `COc1ccc2nc(NC(=O)C3CCC3)sc2c1` [Compound 46, N-(6-methoxybenzo[d]thiazol-2-yl)cyclobutanecarboxamide], the UBC10 was “++ (++ indicates inhibition at 50 μM or or less)”. `COc1ccc(-c2ccc(C(=O)Nc3nc4ccc(OC)cc4s3)cc2)cc1` [Compound 33, 4′-methoxy-N-(6-methoxy-1,3-benzothiazol-2-yl)biphenyl-4-carboxamide] was tested, and the UBC10 was “++ (++ indicates inhibition at 50 μM or or less)”. In the case of `O=C(Nc1nc2ccccc2s1)c1ccc(Br)o1` [Compound 208, N-(benzo[b]thiazol-2-yl)-5-bromofuran-2-carboxamide], the UBC10 was “−− (−− indicates marginal or no inhibition detected with this assay)”. `CC(C)c1ccc(C(=O)Nc2nc3ccccc3s2)cc1` [Compound 222, N-(benzo[d]thiazol-2-yl)-4-isopropylbenzamide] was tested, and the UBC10 was “−− (−− indicates marginal or no inhibition detected with this assay)”. In the case of `Cc1ccc(C(=O)Nc2nc3ccccc3s2)cc1` [Compound 84, N-(benzo[d]thiazol-2-yl)-4-methylbenzamide], the UBC10 was “++ (++ indicates inhibition at 50 μM or or less)”. For `O=C(Nc1nc2ccccc2s1)c1cccs1` [Compound 89, N-(benzo[d]thiazol-2-yl)thiophene-2-carboxamide], the UBC10 was “−− (−− indicates marginal or no inhibition detected with this assay)”. For `COc1ccc2nc(NC(=O)c3ccncc3)sc2c1` [Compound 52, N-(6-methoxybenzo[d]thiazol-2-yl)isonicotinamide], the UBC10 was “−− (−− indicates marginal or no inhibition detected with this assay)”. For `COc1ccc2nc(NC(=O)c3ccc4ccccc4c3)sc2c1` [Compound 25, N-(6-methoxybenzo[d]thiazol-2-yl)-2-naphthamide], the UBC10 was “−− (−− indicates marginal or no inhibition detected with this assay)”. `COc1ccc2nc(NC(=O)Nc3ccc(Cl)cc3)sc2c1` [Compound 99, 1-(4-chlorophenyl)-3-(6-methoxybenzo[d]thiazol-2-yl)urea] was tested, and the UBC10 was “−− (−− indicates marginal or no inhibition detected with this assay)”. `CC(C)(C)c1ccc(C(=O)Nc2nc3ccccc3s2)cc1` [Compound 176, N-(benzo[d]thiazol-2-yl)-4-tert-butylbenzamide] was tested, and the UBC10 was “−− (−− indicates marginal or no inhibition detected with this assay)”. `COc1ccc2nc(NC(=O)Cc3ccccc3)sc2c1` [Compound 43, N-(6-methoxybenzo[d]thiazol-2-yl)-2-phenylacetamide] was tested, and the UBC10 was “−− (−− indicates marginal or no inhibition detected with this assay)”. For `COc1ccc2nc(NC(=O)Nc3ccc(C#N)cc3)sc2c1` [Compound 137, 1-(4-cyanophenyl)-3-(6-methoxybenzo[d]thiazol-2-yl)urea], the UBC10 was “−− (−− indicates marginal or no inhibition detected with this assay)”. `Cc1ccc(C(=O)Nc2nc3c(C)cccc3s2)cc1` [Compound 71, 4-methyl-N-(4-methylbenzo[d]thiazol-2-yl)benzamide] was tested, and the UBC10 was “−− (−− indicates marginal or no inhibition detected with this assay)”. For `O=C(Nc1nc2ccccc2s1)c1ccccc1Cl` [Compound 194, N-(benzo[d]thiazol-2-yl)-2-chlorobenzamide], the UBC10 was “−− (−− indicates marginal or no inhibition detected with this assay)”. In the case of `COc1ccc2nc(NC(C)=O)sc2c1` [Compound 41, N-(6-methoxybenzo[d]thiazol-2-yl)acetamide], the UBC10 was “++ (++ indicates inhibition at 50 μM or or less)”. For `O=C(Nc1nc2ccccc2s1)C1CCNCC1` [Compound 225, N-(benzo[d]thiazol-2-yl)piperidine-4-carboxamide], the UBC10 was “−− (−− indicates marginal or no inhibition detected with this assay)”. For `O=C(Nc1nc2ccccc2s1)c1ccc([N+](=O)[O-])o1` [Compound 156, N-(benzo[d]thiazol-2-yl)-5-nitrofuran-2-carboxamide], the UBC10 was “−− (−− indicates marginal or no inhibition detected with this assay)”. `COc1ccc(OC)c(NC(=O)Nc2nc3ccc(OC)cc3s2)c1` [Compound 120, 1-(2,5-dimethoxyphenyl)-3-(6-methoxybenzo[d]thiazol-2-yl)urea] was tested, and the UBC10 was “++ (++ indicates inhibition at 50 μM or or less)”. With `COc1ccc2nc(NC(=O)c3ccc(N)cc3)sc2c1` [Compound 16, 4-amino-N-(6-methoxybenzo[d]thiazol-2-yl)benzamide] the UBC10 was “++ (++ indicates inhibition at 50 μM or or less)”. With `CCOc1ccc2nc(NC(=O)c3ccc(CC)cc3)sc2c1` [Compound 91, N-(6-ethoxybenzo[d]thiazol-2-yl)-4-ethylbenzamide] the UBC10 was “−− (−− indicates marginal or no inhibition detected with this assay)”. `COc1ccc2nc(NC(=O)c3ccc(NC(=O)C4CCCCC4)cc3)sc2c1` [Compound 19, 4-(cyclohexanecarboxamido)-N-(6-methoxybenzo[d]thiazol-2-yl)benzamide] was tested, and the UBC10 was “++ (++ indicates inhibition at 50 μM or or less)”. With `COc1ccc2nc(NC(=O)C34CC5CC(CC(C5)C3)C4)sc2c1` [Compound 42, N-(6-methoxy-1,3-benzothiazol-2-yl)adamantane-1-carboxamide] the UBC10 was “++ (++ indicates inhibition at 50 μM or or less)”. `COc1cccc(C(=O)Nc2nc3ccc(OC)cc3s2)c1` [Compound 60, 3-methoxy-N-(6-methoxybenzo[d]thiazol-2-yl)benzamide] was tested, and the UBC10 was “++ (++ indicates inhibition at 50 μM or or less)”. With `COc1ccc2nc(NC(=O)[C@H]3Cc4ccccc4N3)sc2c1` [Compound 39, (R)-N-(6-methoxybenzo[d]thiazol-2-yl)indoline-2-carboxamide] the UBC10 was “++ (++ indicates inhibition at 50 μM or or less)”. With `COc1cccc(C(=O)Nc2nc3ccccc3s2)c1` [Compound 189, N-(benzo[d]thiazol-2-yl)-3-methoxybenzamide] the UBC10 was “−− (−− indicates marginal or no inhibition detected with this assay)”. In the case of `COc1ccc2nc(NC(=O)Cc3cc4ccccc4n3C)sc2c1` [Compound 40, N-(6-methoxybenzo[d]thiazol-2-yl)-2-(1-methyl-1H-indol-2-yl)acetamide], the UBC10 was “++ (++ indicates inhibition at 50 μM or or less)”. With `COc1ccc2nc(NC(=O)c3cccc(F)c3)sc2c1` [Compound 58, 3-fluoro-N-(6-methoxybenzo[d]thiazol-2-yl)benzamide] the UBC10 was “++ (++ indicates inhibition at 50 μM or or less)”. In the case of `O=C(Nc1nc2ccccc2s1)c1cccc(F)c1` [Compound 174, N-(benzo[d]thiazol-2-yl)-3-fluorobenzamide], the UBC10 was “−− (−− indicates marginal or no inhibition detected with this assay)”.
